In assay [1] the test system is human CD34^+ umbilical cord blood cells. As to the kind of experiment: adhesion of human CD34+ HCB cells. In kind it is cell-based. The following applies: 5 μM. How it is done: FIG. 4B. Relative adhesion of CD34^+ HCB cells in the presence of CASIN at dose of 5 μM in comparison to that of control.
To begin to study potential utility of CASIN in human hematopoietic stem cell mobilization, a series of cellular assays were carried out to determine the effects on human CD34^+ umbilical cord blood cells (HCBs). […] The effects of CASIN on human hematopoietic cell mobilization was therefore tested using a well established preclinical in vivo model (NOD/SCID-Hcb) of human hematopoietic function, where fresh CD34^+ hCB cells were transplanted into sub-lethally irradiated NOD/SCIDs by intrafemoral injection, and repopulated and maintained human hematopoietic reconstitution in the bone marrow of NOD/SCID recipient mice (FIG. 9b, FIG. 11) (Larochelle, A. et al. Nat Med 2, 1329-1337 (1996); Bhatia, M., et al. Proc Natl Acad Sci USA 94, 5320-5325 (1997)). Intravenous injections of CASIN were applied when human cells were well engrafted in the NOD/SCID recipients.

A further assay has as its system Fancc−/− mice. As to the kind of experiment: Example 10 preparative regimen for BM transplantation in Fancc−/− mice. In kind it is in vivo. To be noted: preconditioning before BM transplantation. How it is done:
Four preparative regimens before BM transplantation on Fancc−/− mice are used to evaluate the capacity of CASIN as a preconditioning agent: (1) Control group; (2) CY group: a single dose of 40 mg/kg CY intraperitoneally; (3) CASIN group: 2.5 mg/Kg; (4) combination of CASIN and CY: one injection of CASIN is given in combination with reduced doses of CY.
Fancc−/− mice are preconditioned with each of these four regimens, and 4×10^7 BM cells from congenic strain mice are transplanted into preconditioned mice by tail vein injection. Mice that underwent transplantation are bled every four weeks to monitor the chimerism of donor-derived cells in PB. And at 3 m, the mice are sacrificed to evaluate the engraftment of donor-derived cells in BM.

The next assay concerns the target T1, RhoA (Mus musculus, UniProt Q9QUI0).
T1 construct: endogenous in cells; host or cells: murine LDBM cells
As to the kind of experiment: Rho GTPase effector pull-down in murine LDBM cells, RhoA. In kind it is cell-based. The following applies: parallel pull-down assay. How it is done: To analyze the effects of CASIN on the formation of active GTP-bound Cdc42, RhoA, and Rac1, effector pulldown assays were carried out as described previously. Cdc42GAP^−/− MEF, LDBM, CD34^+ hCB cells were treated with CASIN at doses of 5-20 μM in parallel with vehicle control for 2 hrs after overnight starvation, and stimulated with cytokines subsequently. And then cells were lysed in a buffer containing 20 mM Tris-HCL (pH 7.6), 100 mM NaCl, 1% Triton X-100, 10 mM MgCl2, 2 mM NaF, and Protease inhibitor cocktail (Roche Diagnostics). Lysates were incubated with GST-P21-binding domain of PAK1 for RAC1-GTP and Cdc42-GTP, and GST-RBD domain of Rhotekin for RhoA-GTP respectively. Both bound- and unbound-form of Rho GTPases were probed by immunoblotting with antibodies specific for Rac1 (BD biosciences), Cdc42 (BD biosciences), and RhoA (cell signaling).

Assay [2] has as its system C57Bl/6, C3H/HeJ and DBA/2 mice. In words: Example 7 HPC mobilization in comparison and combination with G-CSF. To be noted: mouse, in vivo. How it is done: Broad interindividual variability exists in mobilization of HSC/Ps in different strains of mice and man. In some patients, G-CSF is a poor mobilizer. Therefore, the mobilizing capability of CASIN in comparison with G-CSF is evaluated, and in combination with G-CSF, in strains of mice that were reported to differ in responsiveness to G-CSF. Besides C57Bl/6, included in this set of experiments are C3H/HeJ and DBA/2 mice which respond very well to the mobilizing effects of G-CSF compared with C57Bl/6 mice. For each strain of mice, four groups are divided according to regimens used for mobilization: (1) Control medium; (2) CASIN administration; (3)G-CSF: twice a day for 2 days (4) G-CSF plus CASIN administration. Mice are bled 18 h after the last injection, and blood is plated in triplicate for CFU-C assay. Numbers of HPCs in CFU-E, BFU-E, CFU-GM, and CFU-GEMM are calculated per ml of blood later on reflecting the mobilization capacity of different regimens on HPCs.

The subject of the next assay is C57Bl/6 mice. In words: Example 7 PK/PD analysis of HPC mobilization in C57Bl/6 mice. In kind it is in vivo. How it is done: The mice are i.p. administered with CASIN at 6 different doses (0.5, 1.0, 2.5, 5.0, 7.5, and 10 mg/Kg), and ˜1 ml blood are collected by cardiac puncture for PD and PK analysis predosing, 6, 12, 24, 36, 48, 60, and 72 h postdosing. 5 mice are used for each group. To do PK analysis, concentrations of CASIN in plasma are determined by high-pressure liquid chromatography (HPLC) with electrochemical detection, and then all compartmental and noncompartmental analyses are performed using WinNonlin Professional (version 2.0) software (Pharsight, Cary, N.C.). The maximum drug concentration in serum (Cmax) and the time to Cmax are determined directly from the concentration-time curves. Terminal elimination half-life is determined by linear regression of the log-transformed final concentration-time points. As for the PD analysis, the effects of CASIN on mobilization of CFU-GM, CFU-GEMM, BFU-E and CFU-E to the blood of C57Bl/6 mice are evaluated. By using the rest of blood, assays for CFU-GM, CFU-GEMM, BFU-E and CFU-E are performed using ingredients and cytokine combinations, and then the plot of CFU number versus time across the dose groups is drawn. In this way, the optimal dose and time for mobilization in C57Bl/6 mice are determined. […]

A further assay has as its system 32D myeloid progenitors. In words: adhesion of 32D progenitors to fibronectin fragment CH296. To be noted: gradient CASIN treatments. In kind it is cell-based, murine. An excerpt: (§1) To shed light on potential roles of CASIN in HSPC mobilization, the effects of CASIN on Cdc42-related cellular functions was studied, including adhesion, migration, and F-actin polymerization of progenitor cells in 32D myeloid progenitors. […] SDF-1α stimulation causes a reorganization of F-actin into a cortical ring around the cells. […] Thirdly, to gain further insight into cellular specificity and efficacy of CASIN, and also to rule out possible toxic effects by CASIN, Cdc42-involved BM progenitor cell functions were examined, including proliferation, adhesion, migration, and F-actin polymerization, in Cdc42^+/+ cells in parallel with Cdc42^−/− cells. In line with additional studies in a Cdc42 conditional knockout mouse model as described herein, Cdc42^−/− LDBM cells have increased CFU-forming progenitors compared to those of Cdc42^+/+.

A further assay concerns Lin^− BM cells. As to the kind of experiment: FACS analysis of F-actin in Lin− BM cells. In kind it is cell-based, murine. To be noted: column-selected Lin^− BM cells, dose-dependent pattern.
Excerpt: as §1
(In general: Flow cytometry measures light scatter and fluorescence of single cells or particles in a stream.)

T1 sequence (Q9QUI0 whole entry): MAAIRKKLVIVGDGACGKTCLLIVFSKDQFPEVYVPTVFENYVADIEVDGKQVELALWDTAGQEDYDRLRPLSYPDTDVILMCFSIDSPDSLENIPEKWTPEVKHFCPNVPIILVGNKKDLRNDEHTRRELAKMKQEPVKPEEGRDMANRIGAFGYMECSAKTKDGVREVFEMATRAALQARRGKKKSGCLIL

For `OCCNC1CCCc2c1[nH]c1ccc(-c3ccccc3)cc21` (centres unmarked) [CASIN], in assay [1], the “adhesion activity of human progenitors” value was “significantly dampened”. The “repopulation and engraftment of donor derived cells in PB and BM of Fancc−/− recipient mice” value with Fancc−/− mice was “reasonable repopulation and engraftment of donor derived cells”. On RhoA, the RhoA activity entry is “no effects”. Further, the “mobilization in comparison and in combination with G-CSF” value in assay [2] is on record as “more effective mobilization than G-CSF”. Moreover, in the assay with C57Bl/6 mice (C57/B16), the “mobilization after multiple injections one half-life time apart” value is “stronger mobilization effects than that of single CASIN injection”. The “mobilization of HPCs (colony numbers versus dose)” value with C57Bl/6 mice (single i.p. dose, C57Bl/6 mice) is reported as “dose-dependent pattern”. In the assay on 32D myeloid progenitors, the “percentages of adherent 32D cells to CH296” value is reported as “significantly reduced dose-dependently”. The “F-actin reorganization in response to SDF-1α” value in the assay on Lin^− BM cells is “impaired”.

(Values after patent US9433663B2, “Mobilization of hematopoietic stem cells” (Children's Hospital Medical Center, priority 2008, dated 2016).)
